{"source": "paper PMC10820527", "about": "“Synthesis, Characterization, and Investigation of Anti-Inflammatory and Cytotoxic Activities of Novel Thiourea Derivatives of Naproxen” (Pharmaceutics, 2023)", "key": {"[1]": {"target": "T1, 5-LOX (Homo sapiens, UniProt P09917)", "T1 construct": "purchased Abcam", "T1 sequence (P09917 1-674)": "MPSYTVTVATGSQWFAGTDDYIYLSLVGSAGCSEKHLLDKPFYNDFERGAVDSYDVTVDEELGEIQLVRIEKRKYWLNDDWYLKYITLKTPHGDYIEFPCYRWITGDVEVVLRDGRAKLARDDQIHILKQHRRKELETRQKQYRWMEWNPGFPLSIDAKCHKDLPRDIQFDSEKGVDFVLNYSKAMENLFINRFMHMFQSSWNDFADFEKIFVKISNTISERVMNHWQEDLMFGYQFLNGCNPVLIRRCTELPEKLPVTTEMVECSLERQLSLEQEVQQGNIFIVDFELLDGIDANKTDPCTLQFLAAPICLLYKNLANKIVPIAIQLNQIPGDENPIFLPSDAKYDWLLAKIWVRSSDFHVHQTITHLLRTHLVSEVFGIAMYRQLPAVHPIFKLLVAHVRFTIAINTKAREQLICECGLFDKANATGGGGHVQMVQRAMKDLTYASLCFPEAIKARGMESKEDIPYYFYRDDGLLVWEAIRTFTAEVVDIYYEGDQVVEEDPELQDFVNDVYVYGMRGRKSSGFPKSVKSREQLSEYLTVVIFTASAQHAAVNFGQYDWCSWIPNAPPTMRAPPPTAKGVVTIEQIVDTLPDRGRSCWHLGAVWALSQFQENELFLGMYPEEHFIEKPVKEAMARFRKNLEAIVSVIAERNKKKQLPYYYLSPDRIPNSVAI", "test": "Fluorometric 5-LOX inhibitor screening kit", "assay_type": "biochemical", "conditions": "mean of two measurements with standard error, read-out: 5-LOX Percent of Inhibition", "method": "The COX-2 and 5-LOX inhibitory potential of the tested compounds was evaluated using a fluorometric COX-2 and 5-LOX inhibitor screening kit (Abcam, Cambridge, UK). These tests are based on determining the presence of prostaglandin G2 (a product of COX enzyme activity) or an intermediate generated by the enzyme 5-LOX, using fluorometric detection. The mentioned experiments were performed according to the manufacturer’s instructions.\nFor the determination of COX-2 inhibitory potential of tested compounds, stock solutions (5 mM in DMSO) were diluted with the same solvent (test solutions). The test solutions were further diluted with COX assay buffer by mixing 2 µL of the corresponding test solution and 8 µL of COX assay buffer. For the preparation of inhibitory control (IC), celecoxib (2 µL) and COX assay buffer (8 µL) were mixed. Solvent control (SC) was prepared by mixing DMSO (2 µL) and the COX assay buffer (8 µL), enzyme control (EC) was 10 µL of COX assay buffer, while the samples (S) were 10 µL of diluted test solutions. IC, SC, EC, and S were transferred into corresponding wells. For the determination of 5-LOX inhibitory potential of tested compounds, stock solutions of the same concentration (5 mM) were prepared in DMSO. These solutions were further diluted with the same solvent to obtain the test solutions, which were added into the appropriate wells (2 µL). EC, SC, and IC were prepared by adding 2 µL of the assay buffer, DMSO, and zileuton into corresponding wells, respectively.\nThe fluorescence of the samples was measured kinetically at 25 °C (COX-2: Ex/Em = 535/587 nm, during 10 min; 5-LOX: Ek/Em = 500/536 nm during 20 min) using a Synergi LX multi-mode microplate reader (BioTek, Shoreline, WA, USA)."}, "[2]": {"test_system": "HeLa", "test": "MTT cytotoxicity assay, HeLa", "assay_type": "cell-based, human", "conditions": "for IC50: mean ± SD", "method": "(§1) Three cancer cell lines (MDA-MB-231, HCT116 and HeLa; i.e., human breast cancer cells, human colorectal cancer cells, and human cervical cancer cells, respectively), and one non-malignant fibroblast MRC-5 cell line (control) were used in this study. The American Type Cell Collection (ATCC, Manassas, VA, USA) provided all examined cell lines. The cells were grown in a complete medium made up of high-glucose DMEM media supplemented with 10% fetal bovine serum and […] L-glutamine (both from Sigma-Aldrich, USA). The cells were cultured in 25 cc flasks (Thermo Fischer Scientific, Waltham, MA, USA) at 37 °C with 100% humidity in a 5% CO2 atmosphere.\n(§2) The MTT test was used to assess the cytotoxicity of compounds 1–14 [44]. The cytotoxicity of naproxen was also investigated due to its clinical use and structural similarity. Throughout the exponential development period, cells were taken from culture flasks and counted, and 5 × 10^3 cells/well were planted into 96-well culture plates. Following that, the cell lines were treated with varying doses of the investigated chemicals (1–14), naproxen ([…]), and fresh complete media as a control. All evaluated cells were incubated for 24, 48, and 72 h at 37 °C in an environment containing 5% CO2 and 100% humidity. Following incubation, each well’s culture media was taken out, each well received an addition of MTT solution at a final concentration of 0.5 mg/mL, and the cells were left to incubate for an additional four hours. The MTT solution was then withdrawn carefully, and the formazan crystals were dissolved in DMSO. After shaking the plates for 10 min, absorbance at 595 nm was measured using a multiplate reader (Zenyth 3100, Anthos Labtec Instruments, Salzburg, Austria). All concentrations of the tested compounds were performed in three separate wells of the microtiter plates and in three separate experiments. The results were reported as a ratio to the control value, untreated cells. IC50 values were also determined using Microsoft Office Excel 2021. The percentage of viable cells was estimated by dividing the readout absorbance value in the wells containing treated cells by the average absorbance value measured in the wells containing untreated cells, and multiplying the result by 100 [44]. % of the viable cells = ((absorbance of treated cell-absorbance of blank)/(absorbance of untreated cell-absorbance of blank)) × 100(3)"}, "[3]": {"test_system": "MRC-5 fibroblast cell line", "test": "MTT cytotoxicity assay, MRC-5", "assay_type": "cell-based", "conditions": "Homo sapiens, mean ± SD", "method": "as §1, §2"}}, "data": [{"smiles": "COC(=O)[C@H](Cc1ccccc1)NC(=S)NC(=O)[C@@H](C)c1ccc2cc(OC)ccc2c1", "note": "[Compound 13, Methyl (((S)-2-(6-methoxynaphthalen-2-yl)propanoyl)carbamothioyl)phenylalaninate]", "values": [{"measurement": "inhibition at 10 µM", "setting": "[1]", "result": "19.8 ± 13.2", "unit": "%"}, {"measurement": "IC50", "setting": "[2]; Homo sapiens, HeLa, 24 h", "result": "> 200", "unit": "µM"}, {"measurement": "IC50", "setting": "[2]; Homo sapiens, HeLa, 48 h", "result": "> 200", "unit": "µM"}, {"measurement": "IC50", "setting": "[2]; Homo sapiens, HeLa, 72 h", "result": "> 200", "unit": "µM"}, {"measurement": "IC50", "setting": "[3]; MRC5, 24 h", "result": "> 200", "unit": "µM"}, {"measurement": "IC50", "setting": "[3]; MRC5, 48 h", "result": "> 200", "unit": "µM"}, {"measurement": "IC50", "setting": "[3]; MRC5, 72 h", "result": "> 200", "unit": "µM"}]}, {"smiles": "COc1ccc2cc([C@H](C)C(=O)NC(=S)Nc3ccccc3)ccc2c1", "note": "[Compound 8, (S)-2-(6-methoxynaphthalen-2-yl)-N-(phenylcarbamothioyl)propanamide]", "values": [{"measurement": "inhibition at 10 µM", "setting": "[1]", "result": "34.6 ± 5.84", "unit": "%"}, {"measurement": "Cytotoxic effect against HeLa cells (in words)", "setting": "[2]", "result": "strong cytotoxic effects"}, {"measurement": "IC50", "setting": "[2]; 72 h", "result": "9.1 ± 2.5", "unit": "µM"}, {"measurement": "IC50", "setting": "[2]; Homo sapiens, HeLa, 24 h", "result": "> 140", "unit": "µM"}, {"measurement": "IC50", "setting": "[2]; Homo sapiens, HeLa, 48 h", "result": "97.6 ± 10.9", "unit": "µM"}, {"measurement": "IC50", "setting": "[2]; Homo sapiens, HeLa, 72 h", "result": "9 ± 2", "unit": "µM"}, {"measurement": "IC50", "setting": "[3]; MRC5, 24 h", "result": "> 200", "unit": "µM"}, {"measurement": "IC50", "setting": "[3]; MRC5, 48 h", "result": "> 200", "unit": "µM"}, {"measurement": "IC50", "setting": "[3]; MRC5, 72 h", "result": "> 200", "unit": "µM"}]}, {"smiles": "COc1ccc2cc([C@H](C)C(=O)NC(=S)Nc3ccccc3C)ccc2c1", "note": "[Compound 10, (S)-2-(6-methoxynaphthalen-2-yl)-N-(o-tolylcarbamothioyl)propanamide]", "values": [{"measurement": "inhibition at 10 µM", "setting": "[1]", "result": "27.9 ± 0.57", "unit": "%"}, {"measurement": "Cytotoxic effect against HeLa cells (in words)", "setting": "[2]", "result": "moderate cytotoxic effect"}, {"measurement": "IC50", "setting": "[2]; Homo sapiens, HeLa, 24 h", "result": "> 200", "unit": "µM"}, {"measurement": "IC50", "setting": "[2]; Homo sapiens, HeLa, 48 h", "result": "111 ± 8.3", "unit": "µM"}, {"measurement": "IC50", "setting": "[2]; Homo sapiens, HeLa, 72 h", "result": "85.3 ± 9.1", "unit": "µM"}, {"measurement": "IC50", "setting": "[3]; MRC5, 24 h", "result": "> 200", "unit": "µM"}, {"measurement": "IC50", "setting": "[3]; MRC5, 48 h", "result": "> 200", "unit": "µM"}, {"measurement": "IC50", "setting": "[3]; MRC5, 72 h", "result": "> 200", "unit": "µM"}]}, {"smiles": "COc1ccc2cc([C@H](C)C(=O)NC(=S)Nc3ccc(C)cc3)ccc2c1", "note": "[Compound 9, (S)-2-(6-methoxynaphthalen-2-yl)-N-(p-tolylcarbamothioyl)propanamide]", "values": [{"measurement": "inhibition at 10 µM", "setting": "[1]", "result": "12.9 ± 5.47", "unit": "%"}, {"measurement": "IC50", "setting": "[2]; Homo sapiens, HeLa, 24 h", "result": "> 200", "unit": "µM"}, {"measurement": "IC50", "setting": "[2]; Homo sapiens, HeLa, 48 h", "result": "> 200", "unit": "µM"}, {"measurement": "IC50", "setting": "[2]; Homo sapiens, HeLa, 72 h", "result": "120 ± 8.7", "unit": "µM"}, {"measurement": "IC50", "setting": "[3]; MRC5, 24 h", "result": "> 200", "unit": "µM"}, {"measurement": "IC50", "setting": "[3]; MRC5, 48 h", "result": "> 200", "unit": "µM"}, {"measurement": "IC50", "setting": "[3]; MRC5, 72 h", "result": "> 200", "unit": "µM"}]}, {"smiles": "COc1ccc2cc([C@H](C)C(=O)NC(=S)Nc3ccccc3OC)ccc2c1", "note": "[Compound 11, (S)-2-(6-methoxynaphthalen-2-yl)-N-((2-methoxyphenyl)carbamothioyl)propanamide]", "values": [{"measurement": "inhibition at 10 µM", "setting": "[1]", "result": "31.2 ± 5.45", "unit": "%"}, {"measurement": "IC50", "setting": "[2]; Homo sapiens, HeLa, 24 h", "result": "> 200", "unit": "µM"}, {"measurement": "IC50", "setting": "[2]; Homo sapiens, HeLa, 48 h", "result": "> 200", "unit": "µM"}, {"measurement": "IC50", "setting": "[2]; Homo sapiens, HeLa, 72 h", "result": "> 200", "unit": "µM"}, {"measurement": "IC50", "setting": "[3]; MRC5, 24 h", "result": "> 200", "unit": "µM"}, {"measurement": "IC50", "setting": "[3]; MRC5, 48 h", "result": "> 200", "unit": "µM"}, {"measurement": "IC50", "setting": "[3]; MRC5, 72 h", "result": "> 200", "unit": "µM"}]}, {"smiles": "COC(=O)[C@H](Cc1c[nH]c2ccccc12)NC(=S)NC(=O)[C@@H](C)c1ccc2cc(OC)ccc2c1", "note": "[Compound 14, Methyl (((S)-2-(6-methoxynaphthalen-2-yl)propanoyl)carbamothioyl)tryptophanate]", "values": [{"measurement": "inhibition at 10 µM", "setting": "[1]", "result": "46.24 ± 0.4", "unit": "%"}, {"measurement": "IC50", "setting": "[2]; Homo sapiens, HeLa, 24 h", "result": "> 200", "unit": "µM"}, {"measurement": "IC50", "setting": "[2]; Homo sapiens, HeLa, 48 h", "result": "151 ± 14.2", "unit": "µM"}, {"measurement": "IC50", "setting": "[2]; Homo sapiens, HeLa, 72 h", "result": "110 ± 11.5", "unit": "µM"}, {"measurement": "IC50", "setting": "[3]; MRC5, 24 h", "result": "> 200", "unit": "µM"}, {"measurement": "IC50", "setting": "[3]; MRC5, 48 h", "result": "> 200", "unit": "µM"}, {"measurement": "IC50", "setting": "[3]; MRC5, 72 h", "result": "> 200", "unit": "µM"}]}, {"smiles": "COc1ccc2cc([C@H](C)C(=O)NC(=S)Nc3ccccc3F)ccc2c1", "note": "[Compound 12, (S)-N-((2-fluorophenyl)carbamothioyl)-2-(6-methoxynaphthalen-2-yl)propanamide]", "values": [{"measurement": "inhibition at 10 µM", "setting": "[1]", "result": "29.7 ± 8.56", "unit": "%"}, {"measurement": "Cytotoxic effect against HeLa cells (in words)", "setting": "[2]", "result": "moderate cytotoxic effect"}, {"measurement": "IC50", "setting": "[2]; Homo sapiens, HeLa, 24 h", "result": "135 ± 16.8", "unit": "µM"}, {"measurement": "IC50", "setting": "[2]; Homo sapiens, HeLa, 48 h", "result": "103 ± 9.5", "unit": "µM"}, {"measurement": "IC50", "setting": "[2]; Homo sapiens, HeLa, 72 h", "result": "72.8 ± 6.9", "unit": "µM"}, {"measurement": "IC50", "setting": "[3]; MRC5, 24 h", "result": "> 200", "unit": "µM"}, {"measurement": "IC50", "setting": "[3]; MRC5, 48 h", "result": "> 200", "unit": "µM"}, {"measurement": "IC50", "setting": "[3]; MRC5, 72 h", "result": "> 200", "unit": "µM"}]}]}
